Data published in patent publication US6436963B1 (priority 1998, dated 2002).

Key:
Type in all cases: in vivo
[1] = system: Erysiphe graminis; test: Powdery Mildew of Wheat (ERYSGT), protectant spray test on wheat seedlings; settings: wheat (cultivar Monon), sprayed to run off at 100 ppm, inoculated after 24 hours
[2] = system: Puccinia recondita; test: Brown Rust (PUCCRT), protectant spray test on wheat seedlings; settings: wheat (cultivar Monon), sprayed to run off at 100 ppm, inoculated after 24 hours
[3] = system: Leptosphaeria nodorum; test: Glume Blotch of Wheat (LEPTNO), protectant spray test on wheat seedlings; settings: wheat (cultivar Monon), sprayed to run off at 100 ppm, inoculated after 24 hours
[4] = system: Phytophthora infestans; settings: tomatoes (cultivar Rutgers), sprayed to run off at 100 ppm, inoculated after 24 hours

SMILES | ERYSGT control of plant disease [1] | PUCCRT control of plant disease [2] | LEPTNO control of plant disease [3] | PHYTIN control of plant disease [4]
CNC(=O)C(=NOC)c1ccccc1COc1ncc(C(OC(C)=O)c2ccccc2F)cc1Cl (stereo not shown) [Example 82] | ++ (++ = 75-100% control of plant disease) | ++ (++ = 75-100% control of plant disease) | ++ (++ = 75-100% control of plant disease) | ++ (++ = 75-100% control of plant disease)
CNC(=O)C(=NOC)c1ccccc1COc1ncc(C(C)OCc2ccc(OC)cc2)cc1Cl (racemic) [Example 17] | ++ (++ = 75-100% control of plant disease) | ++ (++ = 75-100% control of plant disease) | ++ (++ = 75-100% control of plant disease) | − (− = 0-24% control of plant disease)
CCC(OC(C)=O)c1cnc(OCc2ccccc2C(=NOC)C(=O)NC)c(Cl)c1 (stereo not shown) [Example 91] | ++ (++ = 75-100% control of plant disease) | ++ (++ = 75-100% control of plant disease) | ++ (++ = 75-100% control of plant disease) | ++ (++ = 75-100% control of plant disease)
CNC(=O)C(=NOC)c1ccccc1COc1ncc(C(OC(C)=O)c2cccs2)cc1Cl (stereo not shown) [Example 77] | ++ (++ = 75-100% control of plant disease) | ++ (++ = 75-100% control of plant disease) | ++ (++ = 75-100% control of plant disease) | ++ (++ = 75-100% control of plant disease)
CCOC(=O)OC(c1ccccc1)c1cnc(OCc2ccccc2C(=NOC)C(=O)NC)c(Cl)c1 (racemic) [Example 33] | + (+ = 25-74% control of plant disease) | ++ (++ = 75-100% control of plant disease) | ++ (++ = 75-100% control of plant disease) | ++ (++ = 75-100% control of plant disease)
CNC(=O)C(=NOC)c1ccccc1COc1ncc(C(C)OCc2ccccc2)cc1Cl (racemic) [Example 52] | ++ (++ = 75-100% control of plant disease) | ++ (++ = 75-100% control of plant disease) | ++ (++ = 75-100% control of plant disease) | − (− = 0-24% control of plant disease)
CNC(=O)C(=NOC)c1ccccc1COc1ncc(C(OC(C)=O)c2ccc(OC)cc2)cc1Cl (stereo not shown) [Example 95] | ++ (++ = 75-100% control of plant disease) | ++ (++ = 75-100% control of plant disease) | ++ (++ = 75-100% control of plant disease) | ++ (++ = 75-100% control of plant disease)
CNC(=O)C(=NOC)c1ccccc1COc1ncc(C(OC(C)=O)c2ccc(C)cc2C)cc1Cl (stereo not shown) [Example 92] | ++ (++ = 75-100% control of plant disease) | ++ (++ = 75-100% control of plant disease) | ++ (++ = 75-100% control of plant disease) | ++ (++ = 75-100% control of plant disease)
CCC(O)(c1ccccc1)c1cnc(OCc2ccccc2C(=NOC)C(=O)NC)c(Cl)c1 (racemic) [Example 42] | ++ (++ = 75-100% control of plant disease) | ++ (++ = 75-100% control of plant disease) | ++ (++ = 75-100% control of plant disease) | ++ (++ = 75-100% control of plant disease)
CNC(=O)C(=NOC)c1ccccc1COc1ncc(C(OC(C)=O)c2cccc(C)c2)cc1Cl (stereo not shown) [Example 112] | ++ (++ = 75-100% control of plant disease) | ++ (++ = 75-100% control of plant disease) | ++ (++ = 75-100% control of plant disease) | ++ (++ = 75-100% control of plant disease)
CNC(=O)C(=NOC)c1ccccc1COc1ncc(C(OC)c2ccccc2)cc1Cl (racemic) [Example 38] | + (+ = 25-74% control of plant disease) | ++ (++ = 75-100% control of plant disease) | ++ (++ = 75-100% control of plant disease) | − (− = 0-24% control of plant disease)
CNC(=O)C(=NOC)c1ccccc1COc1ncc(C(C)OC(=O)C(C)(C)C)cc1Cl (racemic) [Example 24] | ++ (++ = 75-100% control of plant disease) | ++ (++ = 75-100% control of plant disease) | ++ (++ = 75-100% control of plant disease) | − (− = 0-24% control of plant disease)
CNC(=O)C(=NOC)c1ccccc1COc1ncc(C(OC(=O)C(C)C)c2ccccc2)cc1Cl (racemic) [Example 32] | − (− = 0-24% control of plant disease) | ++ (++ = 75-100% control of plant disease) | − (− = 0-24% control of plant disease) | − (− = 0-24% control of plant disease)
CCOCC(=O)OC(c1ccccc1)c1cnc(OCc2ccccc2C(=NOC)C(=O)NC)c(Cl)c1 (racemic) [Example 63] | ++ (++ = 75-100% control of plant disease) | ++ (++ = 75-100% control of plant disease) | ++ (++ = 75-100% control of plant disease) | ++ (++ = 75-100% control of plant disease)
CCC(O)c1cnc(OCc2ccccc2C(=NOC)C(=O)NC)c(Cl)c1 (stereo not shown) [Example 90] | ++ (++ = 75-100% control of plant disease) | ++ (++ = 75-100% control of plant disease) | + (+ = 25-74% control of plant disease) | ++ (++ = 75-100% control of plant disease)
CNC(=O)C(=NOC)c1ccccc1COc1ncc(C(OC(C)=O)c2ccc(OC(F)(F)F)cc2)cc1Cl (stereo not shown) [Example 78] | ++ (++ = 75-100% control of plant disease) | ++ (++ = 75-100% control of plant disease) | ++ (++ = 75-100% control of plant disease) | ++ (++ = 75-100% control of plant disease)
CNC(=O)C(=NOC)c1ccccc1COc1ncc(C(OC)c2ccc(OC(F)(F)F)cc2)cc1Cl (stereo not shown) [Example 79] | ++ (++ = 75-100% control of plant disease) | ++ (++ = 75-100% control of plant disease) | ++ (++ = 75-100% control of plant disease) | − (− = 0-24% control of plant disease)
CNC(=O)C(=NOC)c1ccccc1COc1ncc(C(O)c2ccc(Oc3ccccc3)cc2)cc1Cl (stereo not shown) [Example 100] | ++ (++ = 75-100% control of plant disease) | ++ (++ = 75-100% control of plant disease) | ++ (++ = 75-100% control of plant disease) | ++ (++ = 75-100% control of plant disease)
CNC(=O)C(=NOC)c1ccccc1COc1ncc(C(OC(C)=O)c2ccccc2)cc1C (stereo not shown) [Example 98] | ++ (++ = 75-100% control of plant disease) | ++ (++ = 75-100% control of plant disease) | ++ (++ = 75-100% control of plant disease) | ++ (++ = 75-100% control of plant disease)
CNC(=O)C(=NOC)c1ccccc1COc1ncc(C(OC(=O)OC(C)C)c2ccccc2)cc1Cl (racemic) [Example 56] | ++ (++ = 75-100% control of plant disease) | ++ (++ = 75-100% control of plant disease) | ++ (++ = 75-100% control of plant disease) | ++ (++ = 75-100% control of plant disease)
CNC(=O)C(=NOC)c1ccccc1COc1ncc(C(O)c2ccccc2)cc1Cl (racemic) [Example 1] | ++ (++ = 75-100% control of plant disease) | ++ (++ = 75-100% control of plant disease) | ++ (++ = 75-100% control of plant disease) | ++ (++ = 75-100% control of plant disease)
CNC(=O)C(=NOC)c1ccccc1COc1ncc(C2(c3ccccc3)COC(C)(C)O2)cc1Cl (stereo not shown) [Example 123] | ++ (++ = 75-100% control of plant disease) | ++ (++ = 75-100% control of plant disease) | ++ (++ = 75-100% control of plant disease) | ++ (++ = 75-100% control of plant disease)
CNC(=O)C(=NOC)c1ccccc1COc1ncc(C(O)c2ccc(C(F)(F)F)cc2)cc1Cl (stereo not shown) [Example 102] | ++ (++ = 75-100% control of plant disease) | ++ (++ = 75-100% control of plant disease) | ++ (++ = 75-100% control of plant disease) | ++ (++ = 75-100% control of plant disease)
CNC(=O)C(=NOC)c1ccccc1COc1ncc(C(O)c2ccc(OC)c(OC)c2)cc1Cl (stereo not shown) [Example 110] | ++ (++ = 75-100% control of plant disease) | ++ (++ = 75-100% control of plant disease) | ++ (++ = 75-100% control of plant disease) | ++ (++ = 75-100% control of plant disease)
CNC(=O)C(=NOC)c1ccccc1COc1ncc(C(OC(C)(C)C)c2ccccc2)cc1Cl (stereo not shown) [Example 119] | ++ (++ = 75-100% control of plant disease) | ++ (++ = 75-100% control of plant disease) | ++ (++ = 75-100% control of plant disease) | ++ (++ = 75-100% control of plant disease)
